Structures can show the parent of a compound that is named as a salt.
Columns and labels:
[1] = target: T1, recombinant human adrenergic beta 1 receptors (Homo sapiens, UniProt P08588); experiment: Adrenergic β1 [125I]-Iodocyanopindolol binding; details: inhibition of [125I]-Iodocyanopindolol binding; read-out: β1 bind pIC50 (converted)
T1 construct: purchased Euroscreen
Protocol: Membranes containing recombinant human adrenergic beta 1 receptors were obtained from Euroscreen. These were diluted in Assay Buffer (50 mM HEPES, 1 mM EDTA, 120 mM NaCl, 0.1% gelatin, pH 7.4) to provide a final concentration of membranes that gave a clear window between maximum and minimum specific binding.
Assays were performed in U-bottomed 96-well polypropylene plates. 10 PL [1251]-Iodocyanopindolol (0.036 nM final concentration) and 10 μL of Compound A (10× final concentration) were added to each test well. For each assay plate 8 replicates were obtained for [^125]-Iodocyanopindolol binding in the presence of 10 μL vehicle (10% (v/v) DMSO in Assay Buffer; defining maximum binding) or 10 μL Propranolol (10 μM final concentration; defining non-specific binding (NSB)). Membranes were then added to achieve a final volume of 100 μL. […] Five washes with 250 μL wash buffer (50 mM HEPES, 1 mM EDTA, 120 mM NaCl, pH 7.4) were performed at 4° C. to remove unbound radioactivity. […] The plates were sealed (TopSeal A) and filter-bound radioactivity was measured with a scintillation counter (TopCount, Packard BioScience) using a 3-minute counting protocol.
Total specific binding (B0) was determined by subtracting the mean NSB from the mean maximum binding. […]

[2] = system: LPS-induced intra-alveolar neutrophilia; experiment: Intra-alveolar neutrophil migration after intratracheal LPS challenge in the CRL:CD rat; format: in vivo
Protocol: Evaluation of Compound Activity on Intra-Alveolar Neutrophil Migration after Intratracheal Challenge with Lipopolysacharride (LPS) in the CRL:CD Rat
LPS challenge in CRL:CD rats causes an influx of neutrophils into the lungs. Under recoverable gaseous anaesthesia (5% isoflorane in oxygen), rats were dosed via the intratracheal route with vehicle (0.05M phosphate, 0.1% Tween 80, 0.6% saline, pH 6), or compound 30 min before challenge with an intratracheal dose of 10 μg/kg LPS.
The rats (250-400 g) were euthanized 4 hr after LPS challenge with 1 mL pentobarbitone sodium. A tracheotomy was performed and a cannula inserted. The airway was then lavaged using 3 mL Isoton at room temperature. The Isoton (BeckmanCoulter, High Wycombe, UK) was left in the airway for 10 seconds before being removed. The bronchio-alveolar lavage (BAL) fluid containing inflammatory cells was placed into a 15 mL centrifuge tube and kept on ice. This process was repeated three times. An aliquot of BAL fluid was removed and the inflammatory cells were counted on Sysmex (Sysmex UK, Milton Keynes). Neutrophils were expressed in millions/animal (mean ±s.e.mean).

[3] = system: histamine-induced bronchoconstriction; experiment: Lung function in anaesthetized guinea-pigs, histamine challenge; format: in vivo, Dunkin-Hartley guinea pig; details: for inhibition of histamine-induced bronchoconstriction: histamine 5 μg/kg i.v.; for increase in bronchoconstriction: histamine 5 μg/kg, vehicle 1100±161%
Protocol: (§1) Evaluation of Lung Function in Anaesthetized Guinea-Pigs
(§2) Male Dunkin-Hartley guinea pigs (300-600 g) were weighed and dosed with vehicle (0.05M phosphate, 0.1% Tween 80, 0.6% saline, pH 6) or compound via the intratracheal route under recoverable gaseous anaesthesia (5% halothane in oxygen). Animals were dosed with compound or vehicle two hours prior to the administration of histamine or methacholine.
(§3) Guinea pigs were anaesthetized with pentobarbitone (1 mL/kg of 60 mg/mL solution i.p.) approximately 30 minutes prior to the first bronchoconstrictor administration. The trachea was cannulated and the animal ventilated using a constant volume respiratory pump (Harvard Rodent Ventilator model 683) at a rate of 60 breath/min and a tidal volume of 5 ml/kg. A jugular vein was cannulated for the administration of histamine, methacholine or maintenance anaesthetic (0.1 mL of pentobarbitone solution, 60 mg/mL, as required).
(§4) The animals were transferred to a Flexivent System (SCIREQ, Montreal, Canada) in order to measure airway resistance. The animals were ventilated (quasi-sinusoidal ventilation pattern) at 60 breaths/min at a tidal volume of 5 mL/kg. A positive end expiratory pressure of 2-3 cmH2O was applied. Respiratory resistance was measured using the Flexivent “snapshot” facility (1 second duration, 1 Hz frequency). Once stable baseline resistance value had been obtained the animals were given histamine or methacholine in ascending doses (0.5, 1, 2, 3 and 5 μg/kg, i.v.) at approximately 4-minute intervals via the jugular catheter. After each administration of bronchoconstrictor the peak resistance value was recorded. Guinea pigs were euthanized with approximately 1.0 mL pentobarbitone sodium (Euthatal) intravenously after the completion of the lung function measurements. Percentage bronchoprotection produced by a compound was calculated at each dose of brochoconstrictor as follows:
(§5) Where % change Rveh is the mean of the maximum percentage change in airway resistance in the vehicle treated group. The results reported were measured after 5 μg/kg histamine or methacholine and were expressed as percentage bronchoprotection (mean ±s.e.mean).

[4] = system: methacholine-induced bronchoconstriction; experiment: Lung function in anaesthetized guinea-pigs, methacholine challenge; format: in vivo, Dunkin-Hartley guinea pig; details: for inhibition of methacholine-induced bronchoconstriction: methacholine 5 μg/kg i.v.; for increase in resistance: methacholine 5 μg/kg, vehicle 1898±211%
Protocol: as §1, §2, §3, §4, §5

[5] = compound A 1 μg/kg intratracheal 2 h before
[6] = compound A 1 μg/kg intratracheal
[7] = compound A 27 μg/kg intratracheal 2 h before
[8] = compound A 27 μg/kg intratracheal

T1 sequence (P08588 whole entry): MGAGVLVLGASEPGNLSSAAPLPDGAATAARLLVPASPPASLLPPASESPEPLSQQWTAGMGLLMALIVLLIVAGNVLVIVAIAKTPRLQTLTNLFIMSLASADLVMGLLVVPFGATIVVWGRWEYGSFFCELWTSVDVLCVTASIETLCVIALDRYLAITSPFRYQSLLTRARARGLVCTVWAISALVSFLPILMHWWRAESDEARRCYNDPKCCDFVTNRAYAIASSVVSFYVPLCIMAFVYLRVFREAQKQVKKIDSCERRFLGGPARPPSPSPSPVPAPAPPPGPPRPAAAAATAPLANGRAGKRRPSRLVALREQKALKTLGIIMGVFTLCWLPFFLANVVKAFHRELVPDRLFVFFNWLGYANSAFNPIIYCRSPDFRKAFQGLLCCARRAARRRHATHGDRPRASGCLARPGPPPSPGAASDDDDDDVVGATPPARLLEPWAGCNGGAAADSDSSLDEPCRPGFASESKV

Which IC50 [1] does the source give for `CCN(CC)CCN(CCNCCc1ccc(O)c2[nH]c(=O)sc12)C(=O)CCOCCc1cccc2ccccc12` [Compound A, N-[2-(Diethylamino)ethyl]-N-(2-{[2-(4-hydroxy-2-oxo-2,3-dihydro-1,3-benzothiazol-7-yl)ethyl]amino}ethyl)-3-[2-(1-naphthyl)ethoxy]propanamide dihydrobromide] here?
Its IC50 is over 10 µM.

And the inhibition of neutrophilia ([2]; Compound W study, compound A 0.1 μg/kg intratracheal 30 min prior to LPS)?
Its inhibition of neutrophilia is 43%.

What about the “neutrophils in BAL” value ([2]; Compound W study, compound A 0.1 μg/kg, vehicle/LPS 11±1.8) of the same compound?
Its value is 5.0±0.70 million/animal.

And the inhibition of neutrophilia ([2]; Compound X study, compound A 0.1 μg/kg intratracheal 30 min prior to LPS)?
The inhibition of neutrophilia was 26%.

What about the “neutrophils in BAL” value ([2]; Compound X study, compound A 0.1 μg/kg, vehicle/LPS 12±1.7) of the same compound?
Its value is 9.1±1.1 million/animal.

What about the inhibition of neutrophilia ([2]; budesonide study, compound A 0.2 μg/kg intratracheal 30 min prior to LPS 10 μg/kg, BAL 4 hr) of the same compound?
The inhibition of neutrophilia was 45%.

And the “neutrophils in BAL” value ([2]; budesonide study, compound A 0.2 μg/kg intratracheal, mean ±s.e.mean, vehicle/LPS 14±1.6)?
Its value is 7.8±0.71 million/animal.

What about the “inhibition of histamine-induced bronchoconstriction” value [3, 5] of the same compound?
Its value is 49%.

And the increase in bronchoconstriction [3, 6]?
The increase in bronchoconstriction was 544±60%.

And the “inhibition of histamine-induced bronchoconstriction” value [3, 7]?
Its value is 87%.

What about the increase in bronchoconstriction [3, 8] of the same compound?
Its increase in bronchoconstriction is 140±36%.

What about the “inhibition of methacholine-induced bronchoconstriction” value [4, 5] of the same compound?
The value was 15%.

And the increase in resistance [4, 6]?
Its increase in resistance is 1619±235%.

What about the “inhibition of methacholine-induced bronchoconstriction” value [4, 7] of the same compound?
Its value is 82%.

And the increase in resistance [4, 8]?
Its increase in resistance is 347±71%.
